From paper PMC10696396, “HilE represses the activity of the Salmonella virulence regulator HilD via a mechanism distinct from that of intestinal long-chain fatty acids” (The Journal of Biological Chemistry, 2023) come the findings set out here.

The structures appear in SMILES notation.

Assay [1] has as its target T1, HilD (Salmonella enterica, UniProt P0CL08). The assay can be described thus: biochemical. The arrangement: EYFP-HilD (full-length HilD with N-terminal EYFP tag); microscale thermophoresis, fatty acid titrated against EYFP-HilD in presence of Pluronic F-127, MST on-time 1.5 s. The note with it: in presence of Pluronic F-127; read-out: Kd ± SD.
Assay [2] concerns the target T1, HilD. The assay can be described thus: EMSA with hilA promoter DNA. The assay is classed as biochemical. Also on record: HilD.
The target in assay [3] is T1, HilD. The assay can be described thus: MST. Type of assay: binding. Also on record: EYFP-HilD (full-length HilD with N-terminal EYFP tag). The conditions noted are these: read-out: Kd ± SD.
The target of assay [4] is T2, HilD (Salmonella enterica, UniProt P0CL08, E102A).
T2 construct: HilD point mutant
T2 sequence (P0CL08 1-309 E102A): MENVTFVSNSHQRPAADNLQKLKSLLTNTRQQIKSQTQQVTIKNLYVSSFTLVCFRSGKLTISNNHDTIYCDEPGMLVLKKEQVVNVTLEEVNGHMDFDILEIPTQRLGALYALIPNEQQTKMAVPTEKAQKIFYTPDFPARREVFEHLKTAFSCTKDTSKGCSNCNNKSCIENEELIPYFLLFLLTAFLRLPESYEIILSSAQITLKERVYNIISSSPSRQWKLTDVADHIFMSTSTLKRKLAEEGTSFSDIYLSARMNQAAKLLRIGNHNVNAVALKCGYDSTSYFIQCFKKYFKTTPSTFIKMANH
The assay can be described thus: MST. Type of assay: binding.

Assay [5] addresses T3, HilD (Salmonella enterica, UniProt P0CL08, R267A).
T3 construct: HilD point mutant
T3 sequence (P0CL08 1-309 R267A): T2 sequence (P0CL08 1-309 E102A)
The assay can be described thus: MST. Type of assay: binding.

The target in assay [6] is T4, HilD (Salmonella enterica, UniProt P0CL08, E102A/K264A/R267A).
T4 construct: HilD triple alanine mutant
T4 sequence (P0CL08 1-309 E102A/K264A/R267A): T2 sequence (P0CL08 1-309 E102A)
The assay can be described thus: MST. Type of assay: binding.

For assay [7], the target named is T5, HilD (Salmonella enterica, UniProt P0CL08, K264A).
T5 construct: HilD point mutant
T5 sequence (P0CL08 1-309 K264A): T2 sequence (P0CL08 1-309 E102A)
The assay can be described thus: MST. Type of assay: binding.

Assay [8] deals with T1, HilD. The assay can be described thus: MST; supported by HDX-MS, nanoDSF and BS3 cross-linking. The note with it: read-out: Kd ± SD. Also on record: EYFP-HilD (full-length HilD with N-terminal EYFP tag). Type of assay: binding. In general terms: In DSF a fluorescence change marks the thermal transition of the protein.
Assay [9] has as its target T1, HilD. The assay can be described thus: MST; supported by nanoDSF melting temperature increase. The note with it: read-out: Kd ± SD. Type of assay: binding. Also on record: EYFP-HilD (full-length HilD with N-terminal EYFP tag).

Turning to `CCCCCCCC/C=C\CCCCCCCC(=O)OC` [Methyl Oleate], the Kd (in general, the free concentration of one partner at which half of the binding sites on the other are occupied at equilibrium, for simple one-to-one binding) at HilD [1] is 739 µM.
In the case of `CCCC/C=C\CCCCCCCC(=O)O` [Myristoleic Acid], on HilD [1], the Kd is 567 µM.
As for `CCCCCCCC/C=C/CCCCCCCC(=O)O` [elaidic acid], the “EMSA with hilA promoter DNA” value at HilD [2] was “Elaidic acid appears to bind to HilD with similar affinity to oleic acid”.
As to `CCCCCCCC/C=C\CCCCCCCCCCCC(=O)O` [erucic acid], the dissociation constant (Kd) turned out to be 12.8 ± 3.33 µM at HilD [3] and 14.7 µM on HilD [1].
In the case of `CCCCCCCC/C=C\CCCCCCCC(=O)O` [oleic acid], the Kd worked out at 39 ± 8.26 µM at HilD [4]; 39.4 ± 7.98 µM on HilD [5]; 39.7 ± 7.9 µM on HilD [6]; 27.1 ± 7.08 µM on HilD [7]; 15 ± 3.21 µM on HilD [8].
With `CCCCCC/C=C\CCCCCCCC(=O)O` [palmitoleic acid], the Kd at HilD [9] came out at 27.6 ± 8.7 µM.
